Reference: patent US12410160B2 (Gilead Sciences, Inc., priority 2021, dated 2025)

Columns and labels:
[1] = target: human KHK-C (Homo sapiens (Human), UniProt P50053); test: KHK Biochemical Assay (IC50), ADP-Glo, KHK-C; conditions: ADP-Glo; average of at least two separate assays
Outline: (§1)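 ADP-Glo luminescence measured ADP made over a 4 h room-temperature reaction of ATP plus fructose, started after 30 min compound–enzyme pre-incubation. Buffer: 50 mM Hepes pH 7.4, 140 mM KCl, 5 mM MgCl2, 0.01% Triton-X. Enzyme was His-tagged, BL21 (DE3)-expressed, Ni-NTA-purified; compounds in 1:3 DMSO dilution series.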

[2] = target: human KHK-A (Homo sapiens (Human), UniProt P50053); test: KHK Biochemical Assay (IC50), ADP-Glo, KHK-A; conditions: ADP-Glo; average of at least two separate assays
Outline: as §1

[3] = target: KHK-C expressed in NRK-52E cells (Homo sapiens (Human), UniProt P50053); test: KHK-C Cell-based Assay (EC50), NRK CTG, fructose-mediated ATP-depletion
Chain of KHK-C expressed in NRK-52E cells (P50053 whole entry): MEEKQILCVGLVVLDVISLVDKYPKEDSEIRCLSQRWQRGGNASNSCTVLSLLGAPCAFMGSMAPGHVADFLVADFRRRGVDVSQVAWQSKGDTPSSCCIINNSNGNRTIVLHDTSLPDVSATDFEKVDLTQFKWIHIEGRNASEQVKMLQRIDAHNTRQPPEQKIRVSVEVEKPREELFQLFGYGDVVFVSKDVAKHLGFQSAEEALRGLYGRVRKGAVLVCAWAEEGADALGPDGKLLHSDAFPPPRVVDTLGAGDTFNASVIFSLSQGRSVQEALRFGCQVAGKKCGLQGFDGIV

Chain of human KHK-C (P50053 whole entry): as above
Chain of human KHK-A (P50053 other isoform, or with tags, fused parts or gaps): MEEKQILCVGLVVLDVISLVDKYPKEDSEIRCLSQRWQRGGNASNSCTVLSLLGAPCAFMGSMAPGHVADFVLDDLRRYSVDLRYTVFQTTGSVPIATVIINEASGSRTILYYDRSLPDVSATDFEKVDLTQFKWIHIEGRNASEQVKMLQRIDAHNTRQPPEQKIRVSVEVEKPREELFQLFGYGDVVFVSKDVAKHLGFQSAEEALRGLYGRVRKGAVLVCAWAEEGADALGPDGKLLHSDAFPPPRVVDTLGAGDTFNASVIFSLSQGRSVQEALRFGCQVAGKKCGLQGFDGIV

Row | SMILES | IC50 [1] | IC50 [2] | EC50 [3]
1 | C[C@H]1CCN1c1nc2c(c(-c3ccc4c(c3)CC(CC(N)=O)C4)n1)CCC2 (stereo partly drawn) [Example 135, 2-(5-(2-((S)-2-methylazetidin-1-yl)-6,7-dihydro-5H-cyclopenta[d]pyrimidin-4-yl)-2,3-dihydro-1H-inden-2-yl)acetamide] | 111 nM | 126 nM | 277 nM
2 | C[C@H]1CCN1c1nc2c(c(-c3ccc4c(c3)CC3C(C(=O)O)C43)n1)CCC2 (stereo partly drawn) [Example 136, 4-(2-((S)-2-methylazetidin-1-yl)-6,7-dihydro-5H-cyclopenta[d]pyrimidin-4-yl)-1,1a,6,6a-tetrahydrocyclopropa[a]indene-1-carboxylic acid] | 62 nM | 114 nM | 2460 nM
3 | C[C@H]1CCN1c1nc2c(c(-c3ccc4c(c3)CC(C(=O)O)C4)n1)CCC2 (stereo partly drawn) [Example 139, 5-(2-((S)-2-methylazetidin-1-yl)-6,7-dihydro-5H-cyclopenta[d]pyrimidin-4-yl)-2,3-dihydro-1H-indene-2-carboxylic acid] | 55.3 nM | 85.8 nM | 2490 nM
4 | C[C@H]1CCN1c1nc2c(c(-c3ccc4c(c3)CC(C(N)=O)C4)n1)CCC2 (stereo partly drawn) [Example 140, 5-(2-((S)-2-methylazetidin-1-yl)-6,7-dihydro-5H-cyclopenta[d]pyrimidin-4-yl)-2,3-dihydro-1H-indene-2-carboxamide] | 52.8 nM | 28.1 nM | 163 nM
5 | C[C@@H]1N(c2nc3c(c(-c4ccc(C(N)=O)cc4)n2)CCC3)C[C@@]1(C)O [Example 141] | 290 nM | 334 nM | 1260 nM
6 | NC(=O)c1ccc(-c2nc(N3CCCC3)nc3c2CCC3)cc1 [Example 142, 4-(2-(pyrrolidin-1-yl)-6,7-dihydro-5H-cyclopenta[d]pyrimidin-4-yl)benzamide] | 2430 nM | 2110 nM | 2040 nM
7 | C[C@H]1CCN1c1nc2c(c(-c3ccc4nc(N)ccc4c3)n1)CCC2 [Example 143, (S)-6-(2-(2-methylazetidin-1-yl)-6,7-dihydro-5H-cyclopenta[d]pyrimidin-4-yl)quinolin-2-amine] | 30.6 nM | 21.4 nM | 43.3 nM
8 | C[C@H]1CCN1c1nc2c(c(-c3ccc(C(N)=O)c4ccccc34)n1)CCC2 [Example 144, (S)-4-(2-(2-methylazetidin-1-yl)-6,7-dihydro-5H-cyclopenta[d]pyrimidin-4-yl)-1-naphthamide] | 2400 nM | 1690 nM | 2440 nM
9 | C[C@H]1CCN1c1nc2c(c(-c3ccc4c(c3)C3(CCC4)CC3C(=O)O)n1)CCC2 (stereo partly drawn) [Example 148, 7′-(2-((S)-2-methylazetidin-1-yl)-6,7-dihydro-5H-cyclopenta[d]pyrimidin-4-yl)-3′,4′-dihydro-2′H-spiro[cyclopropane-1,1′-naphthalene]-2-carboxylic acid] | 59.9 nM | 84 nM | 653 nM
10 | C[C@H]1CCN1c1nc2c(c(-c3ccc4c(c3)OCCNC4=O)n1)CCC2 [Example 149, (S)-8-(2-(2-methylazetidin-1-yl)-6,7-dihydro-5H-cyclopenta[d]pyrimidin-4-yl)-3,4-dihydrobenzo[f][1,4]oxazepin-5(2H)-one] | 6.7 nM | 33.2 nM | 18.8 nM
11 | C[C@H]1CCN1c1nc2c(c(-c3ccc4c(c3)C(=O)NCCO4)n1)CCC2 [Example 150, (S)-7-(2-(2-methylazetidin-1-yl)-6,7-dihydro-5H-cyclopenta[d]pyrimidin-4-yl)-3,4-dihydrobenzo[f][1,4]oxazepin-5(2H)-one] | 33.1 nM | 32.2 nM | 73.2 nM
12 | C[C@H]1CCN1c1nc2c(c(-c3cc4ccccc4[nH]3)n1)CCC2 [Example 151, (S)-4-(1H-indol-2-yl)-2-(2-methylazetidin-1-yl)-6,7-dihydro-5H-cyclopenta[d]pyrimidine] | 3890 nM | 4980 nM | 1360 nM
13 | C[C@H]1CCN1c1nc2c(c(-c3cc4cc(C(N)=O)ccc4[nH]3)n1)CCC2 [Example 152, (S)-2-(2-(2-methylazetidin-1-yl)-6,7-dihydro-5H-cyclopenta[d]pyrimidin-4-yl)-1H-indole-5-carboxamide] | 94 nM | 63.6 nM | 200 nM
14 | C[C@H]1CCN1c1nc2c(c(-c3cc4cc(C(=O)O)ccc4[nH]3)n1)CCC2 [Example 153, (S)-2-(2-(2-methylazetidin-1-yl)-6,7-dihydro-5H-cyclopenta[d]pyrimidin-4-yl)-1H-indole-5-carboxylic acid] | 66.6 nM | 186 nM | 4000 nM
15 | C[C@H]1CCN1c1nc2c(c(-c3cc4cccc(C(N)=O)c4[nH]3)n1)CCC2 [Example 154, (S)-2-(2-(2-methylazetidin-1-yl)-6,7-dihydro-5H-cyclopenta[d]pyrimidin-4-yl)-1H-indole-7-carboxamide] | 90.4 nM | 45.8 nM | 34 nM
16 | C[C@H]1CCN1c1nc2c(c(-c3cc4c(C(=O)O)cccc4[nH]3)n1)CCC2 [Example 155, (S)-2-(2-(2-methylazetidin-1-yl)-6,7-dihydro-5H-cyclopenta[d]pyrimidin-4-yl)-1H-indole-4-carboxylic acid] | 99.5 nM | 232 nM | 4790 nM
17 | C[C@H]1CCN1c1nc2c(c(-c3cc4c(C(N)=O)cccc4[nH]3)n1)CCC2 [Example 156, (S)-2-(2-(2-methylazetidin-1-yl)-6,7-dihydro-5H-cyclopenta[d]pyrimidin-4-yl)-1H-indole-4-carboxamide] | 82 nM | 99.9 nM | 145 nM
18 | C[C@H]1CCN1c1nc(-c2ccc(C(N)=O)cc2)c2c(n1)C(F)(F)CCC2 [Example 157, (S)-4-(8,8-difluoro-2-(2-methylazetidin-1-yl)-5,6,7,8-tetrahydroquinazolin-4-yl)benzamide] | 211 nM | 125 nM | 291 nM
19 | C[C@H]1[C@H](O)CN1c1nc(-c2ccc(C(N)=O)cc2)c2c(n1)C(F)(F)CCC2 [Example 158] | 314 nM | 217 nM | 1120 nM
20 | C[C@H]1CCN1c1nc2c(c(-c3ccc4nc(O)ccc4c3)n1)CCC2 [Example 175, (S)-6-(2-(2-methylazetidin-1-yl)-6,7-dihydro-5H-cyclopenta[d]pyrimidin-4-yl)quinolin-2-ol] | 49.8 nM | 66.5 nM | 249 nM
21 | C[C@H]1CCN1c1nc2c(c(-c3ccc4[nH]c(C(N)=O)cc4c3)n1)CCC2 [Example 184, 5-[2-[(2S)-2-methylazetidin-1-yl]-6,7-dihydro-5H-cyclopenta[d]pyrimidin-4-yl]-1H-indole-2-carboxamide] | 210 nM | 152 nM | 275 nM
22 | C[C@H]1CCN1c1nc2c(c(-c3ccc(-c4ncc[nH]4)cc3)n1)CCC2 [Example 185, 4-[4-(1H-imidazol-2-yl)phenyl]-2-[(2S)-2-methylazetidin-1-yl]-6,7-dihydro-5H-cyclopenta[d]pyrimidine] | 48.8 nM | 60.6 nM | 83.9 nM
23 | C[C@H]1CCN1c1nc2c(c(-c3ccc4c(c3)CN(C)C4=O)n1)CCC2 [Example 186, 2-methyl-5-[2-[(2S)-2-methylazetidin-1-yl]-6,7-dihydro-5H-cyclopenta[d]pyrimidin-4-yl]isoindolin-1-one] | 66.9 nM | 78.2 nM | 143 nM
24 | C[C@H]1CCN1c1nc2c(c(-c3ccc4c(c3)CNC4=O)n1)CCC2 [Example 187, 5-[2-[(2S)-2-methylazetidin-1-yl]-6,7-dihydro-5H-cyclopenta[d]pyrimidin-4-yl]isoindolin-1-one] | 22.4 nM | 33.3 nM | 91.6 nM
25 | C[C@H]1CCN1c1nc2c(c(-c3ccc(S(N)(=O)=O)cc3)n1)CCC2 [Example 189, 4-[2-[(2S)-2-methylazetidin-1-yl]-6,7-dihydro-5H-cyclopenta[d]pyrimidin-4-yl]benzenesulfonamide] | 61.7 nM | 81.6 nM | 112 nM
26 | C[C@H]1CCN1c1nc2c(c(-c3cccc(C(C)(C)N)c3)n1)CCC2 [Example 190, 2-[3-[2-[(2S)-2-methylazetidin-1-yl]-6,7-dihydro-5H-cyclopenta[d]pyrimidin-4-yl]phenyl]propan-2-amine] | 40.8 nM | 48.7 nM | 28.1 nM
27 | C[C@H]1[C@H](O)CN1c1nc2c(c(-c3ccc(-c4ncc[nH]4)cc3)n1)CCC2 [Example 193, (2S,3R)-1-[4-[4-(1H-imidazol-2-yl)phenyl]-6,7-dihydro-5H-cyclopenta[d]pyrimidin-2-yl]-2-methyl-azetidin-3-ol] | 97.8 nM | 73.4 nM | 412 nM
28 | C[C@H]1[C@H](O)CN1c1nc2c(c(-c3ccc4c(c3)CNC4=O)n1)CCC2 [Example 196, 5-[2-[(2S,3R)-3-hydroxy-2-methyl-azetidin-1-yl]-6,7-dihydro-5H-cyclopenta[d]pyrimidin-4-yl]isoindolin-1-one] | 86.7 nM | 136 nM | 367 nM
29 | C[C@H]1[C@H](F)CN1c1nc2c(c(-c3ccc(C(N)=O)cc3)n1)CCC2 [Example 200, 4-[2-[(2S,3R)-3-fluoro-2-methyl-azetidin-1-yl]-6,7-dihydro-5H-cyclopenta[d]pyrimidin-4-yl]benzamide] | 10.9 nM | 14.9 nM | 49.3 nM
30 | C[C@H]1[C@H](F)CN1c1nc2c(c(-c3ccc(CN)cc3)n1)CCC2 [Example 201, [4-[2-[(2S,3R)-3-fluoro-2-methyl-azetidin-1-yl]-6,7-dihydro-5H-cyclopenta[d]pyrimidin-4-yl]phenyl]methanamine] | 1.7 nM | 2.9 nM | 130 nM
